Assay results reported in patent US20200246365A1, “COMPOUNDS, PHARMACEUTICAL COMPOSITIONS AND USE THEREOF AS INHIBITORS OF RAN GTPASE” (THE ROYAL INSTITUTION FOR THE ADVANCEMENT OF LEARNING / …, priority 2017, published 2020).

What was measured:
[1] = biological target: T1, recombinant human Ran protein (Homo sapiens, UniProt P62826); experiment: Surface Plasmon Resonance (SPR) binding to immobilized Ran; settings: different compound concentrations, reached saturation
T1 construct: Recombinant Ran protein was purchased from Sigma-Aldrich Inc. (R3152)
Method: SPR experiments were carried out using the Biacore 3000 system. Recombinant Ran protein was purchased from Sigma-Aldrich Inc. (R3152). The running buffer contained PBS, pH7.4, 1 mM GDP, 2 mM MgCl2 and 0.2% DMSO. The regeneration buffer contained 10 mM glycine (pH 2.5). Ran-GDP protein was immobilized onto a CM5 chip; samples of compounds in running buffer were injected at 30 μL/min for 10 minutes contact time followed by 5 minutes regeneration. Kd was calculated using the GraphPad Prism 5 software.

TOV112D cells = experiment: Clonogenic survival assay, TOV112D; assay type: cell-based, human
Method: (§1) The human EOC cell lines used (TOV81D, TOV112D, OV90, TOV21G, OV866(2), TOV1369(R), OV1369(R2), TOV1946, OV1946, TOV2295(R), OV4485) were derived in our laboratory from patients' tumors (TOV) or ascites (OV). All EOC cell lines were maintained in a low oxygen condition of 7% O2 and 5% CO2 and grown in OSE medium (Wisent, Montreal, QC) supplemented with 10% FBS (Wisent), 0.5 μg/mL amphotericin B (Wisent) and 50 μg/mL gentamicin (Life Technologies Inc., Burlington, ON). The human retinal epithelial cell line ARPE-19 was purchased from American Type Culture Collection (ATCC, Manassas, Va.) and maintained in DMEM-F12 (Wisent) supplemented with 10% FBS (Wisent), 0.5 μg/mL amphotericin B (Wisent) and 50 μg/mL gentamicin (Life Technologies Inc.).
(§2) Clonogenic assays were performed as previously described. Colonies were counted under a stereo microscope and reported as percent of control. IC50 values were determined using Graph Pad Prism 5 software (GraphPad Software Inc., San Diego, Calif.). Each experiment was performed in duplicate and repeated three times. Sensitivity of the cell lines to small molecules inhibitors of Ran was assessed using a concentration range of 0-50 μM.
(§3) Small molecules inhibitors of Ran were dissolved in 100% dimethyl sulfoxide (DMSO) and then further diluted in complete culture media for in vitro experiments. Drugs were added 24 hours after seeding.

ARPE-19 cells = experiment: Clonogenic survival assay, ARPE-19; assay type: cell-based, human
Method: as §1, §2, §3

[2] = tested on: other aneuploid EOC cells; experiment: IncuCyte cell proliferation assay, other aneuploid EOC cell lines; assay type: cell-based, human; settings: 40 μM
Method: as §1
Cells (2,000 cells/well) were plated in a 96-well plate. The next day, compounds were added at the indicated concentrations. Following treatment, cell confluence was imaged by phase contrast using the IncuCyte live cell monitoring system (Essen BioScience, Ann Arbor, Mich.). Frames were captured at 2-hour intervals using a 10× objective. For Ran knock down experiments, cells were seeded in a 96-well plate (4,000 cells/well) directly after transfection. Cell confluence monitoring started the next day as described above.
as §3

Ran-GTP [3] = biological target: T2, Ran-GTP (Homo sapiens, UniProt P62826); experiment: Ran activation (Ran-GTP pull-down) assay in TOV112D cells; assay type: cell-based; settings: 1 hour treatment, vs DMSO
Method: Cells were seeded onto 6-well tissue culture plates in such a way that cell confluence reaches approximately 70% the day of experiment. The day of experiment cells were treated for 1 hour with the indicated compounds prior to protein extraction and quantification. Assays were performed using the Ran activation assay kit (Cell Biolabs). Briefly, 400 μg of lysates were incubated for one hour at 4° C. with agarose beads conjugated to RANBP1, which specifically binds Ran-GTP. Beads were pelleted, washed, and re-suspended in SDS-PAGE buffer, followed by immunoblotting with an anti-Ran antibody.

Rac1-GTP = Rac1-GTP (Homo sapiens, UniProt P63000); experiment: Rac1-GTP pull-down assay; assay type: cell-based; settings: 50 μM M36 (FIG. 7F)
RhoA = RhoA (Homo sapiens, UniProt P61586); experiment: RhoA activation ELISA in TOV112D cells; assay type: cell-based; settings: vs DMSO
Chain of RhoA (P61586 whole entry): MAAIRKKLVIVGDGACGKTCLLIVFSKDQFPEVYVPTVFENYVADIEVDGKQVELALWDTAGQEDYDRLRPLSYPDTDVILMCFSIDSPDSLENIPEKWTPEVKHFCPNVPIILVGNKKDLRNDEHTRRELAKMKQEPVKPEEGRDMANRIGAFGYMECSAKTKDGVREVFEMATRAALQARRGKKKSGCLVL

Cdc42 = Cdc42 (Homo sapiens, UniProt P60953); experiment: Cdc42 activation ELISA in TOV112D cells; assay type: cell-based; settings: vs DMSO
Chain of Cdc42 (P60953 whole entry): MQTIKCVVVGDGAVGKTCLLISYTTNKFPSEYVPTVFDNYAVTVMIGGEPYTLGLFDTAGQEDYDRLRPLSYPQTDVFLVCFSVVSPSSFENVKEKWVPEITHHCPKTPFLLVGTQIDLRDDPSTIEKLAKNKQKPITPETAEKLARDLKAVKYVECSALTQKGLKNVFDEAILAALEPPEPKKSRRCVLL

cleaved PARP = experiment: Apoptosis by PARP cleavage (Western blot); assay type: cell-based, human; settings: 96 hours after treatment
Method: Cells were lysed with RIPA buffer containing protease inhibitors. Whole cell lysates were run through a Bradford assay (Thermo Fisher Scientific) for protein quantification. Around 25-50 μg of proteins were separated onto 12.5% SDS-PAGE and transferred onto nitrocellulose membranes. The resultant blots were probed with Ran (1:10000, sc-271376 Santa Cruz Biotechnology, Dallas, Tex.), cleaved PARP (1:1000, #9541, Cell Signaling Technology Inc., Danvers, Mass.), GAPDH (1:2500, #2118, Cell Signaling Technology Inc.) or beta-actin (1:50000, ab6276, Abcam Inc., Toronto, ON, Canada) primary antibodies overnight at 4° C. then with peroxidase-conjugated secondary antibodies for 2 hours at room temperature. Proteins were detected using enhanced chemiluminescence (Thermo Fisher Scientific).

Ran-GTP [4] = biological target: T2, Ran-GTP; experiment: Ran-GTP immunofluorescence in TOV112D cells; assay type: cell-based; settings: TOV112D cells vs DMSO-treated
Method: M36 and R28-treated and control TOV112D cells grown on coverslips were washed with 1×PBS, fixed in 4% paraformaldehyde and permeabilized with 0.25% Triton X-100 (Sigma-Aldrich Inc.). After blocking (4% BSA and 4% FBS in PBS), coverslips were incubated with the monoclonal anti-RanGTP antibody (26915, NewEastBioscences) diluted 1:100 in blocking buffer for 2 hours at room temperature. Subsequently, samples were incubated with Cy-5 secondary antibody (1:500, Life Technologies Inc.) for 1 hour and coverslips were mounted onto slides using Prolong® Gold anti-fade reagent with DAPI (Life Technologies Inc.). Samples were visualized under a Zeiss microscope (Zeiss observer Z1) with a 20× objective.

[5] = Pharmacokinetics in CD1 mice; assay type: in vivo
Method: For the pharmacokinetic studies, 6-week-old female CD1 mice (Charles River laboratories, Senneville, QC, Canada) received a single intravenous or intraperitoneal injection of M36 or QR20 (50 mg/kg), dissolved in DMSO 10%, Kolliphor® EL 10%, PEG-400 20% and PBS 60% (QR20 was also dissolved in DMSO 10%, PBS 90%). For each time point (15 minutes, 30 minutes, […], 1 hour, 2 hours and 6 hours), 3 mice were sacrificed and blood was collected by cardiac puncture. Thereafter, the plasma level of each compound was measured by mass spectrometry.

[6] = Tolerance test in NRG mice; assay type: in vivo; settings: daily i.p. 75 mg/kg for 15 days
Method: For the tolerance test, M36 and QR20 compounds were dissolved in DMSO 10%, Kolliphor® EL 10%, PEG-400 20% and PBS 60% and injected intraperitoneally into 6-week-old female Nod Rag Gamma (NRG) mice (The Jackson laboratory, Bar Harbor, Me.) daily at 75 mg/kg. During this study, mice (n=3) were monitored for survival and weight loss/gain.

[7] = tested on: prostate cancer cell lines (LNCaP, 22RV1, PC3, DU145); experiment: Cell proliferation, prostate cancer cell lines; assay type: cell-based
γH2AX foci = γH2AX foci immunostaining in TOV112D cells; assay type: cell-based, human
RAD51/Geminin foci (HR) = experiment: RAD51/Geminin foci after gamma-irradiation in TOV112D cells; assay type: cell-based, human
53BP1 = 53BP1 immunofluorescence after gamma-irradiation in TOV112D cells; assay type: cell-based, human
[8] = tested on: TOV112D cells overexpressing DA Ran; experiment: Cell survival of TOV112D cells transfected with Ran WT or dominant active mutant; assay type: cell-based, human

SMILES: NC(=S)[C@@H]1O[C@H](COCc2ccc(F)cc2)[C@@H](OCc2ccc(F)cc2)[C@H]1OCc1ccc(F)cc1 [M36]
- binding to the immobilized Ran protein [1]: concentration-dependent binding
- IC50 (TOV112D cells; Homo sapiens, TOV112D, read-out: IC50 value for the TOV112D cell line by clonogenic assay): 10 ± 0.36 µM
- colony formation of TOV112D cells (TOV112D cells; single dose 10 μM): inhibited colony formation of TOV112D cells
- effect on normal ARPE-19 cell line in detailed clonogenic assay (ARPE-19 cells; different concentrations): almost no effect
- colony formation of ARPE-19 cells (ARPE-19 cells; single dose 10 μM): without affecting the ARPE-19 cells
- cell proliferation of other aneuploid EOC cells [2]: inhibited cell proliferation
- active Ran-GTP levels (pull-down) (Ran-GTP [3]): concentration-dependent decrease in Ran-GTP levels
- Rac1-GTP levels (pull-down) (Rac1-GTP): no decreased levels of Rac1-GTP
- activation of RhoA (RhoA-GTP levels) (RhoA): does not inhibit the activation
- activation of Cdc42 (Cdc42-GTP levels) (Cdc42): does not inhibit the activation
- apoptosis (cleaved PARP on Western blot) (cleaved PARP): induced cell apoptosis
- Ran-GTP levels by immunofluorescence (Ran-GTP [4]): no detectable levels of Ran-GTP
- pharmacokinetics profile based on AUC values ([5]; 50 mg/kg): good pharmacokinetics profiles
- absorption after intraperitoneal vs intravenous injection (plasma levels) ([5]; 50 mg/kg single injection): less absorbed than compound QR20
- persistence in the circulation ([5]; 50 mg/kg single injection): persists longer in the circulation
- tolerance [6]: well tolerated
- weight loss [6]: no weight loss
- effect on prostate cancer cell lines [7]: also effective in prostate cancer cell lines
- DNA damage (γH2AX foci) (γH2AX foci; 48 hours or 72 hours treatment): increases DNA damage
- DNA double-strand breaks repair (γH2AX foci clearance) (γH2AX foci; after gamma-irradiation): delays DNA double-strand breaks repair
- HR pathway (RAD51/Geminin foci) (RAD51/Geminin foci (HR)): inhibiting the HR and NHEJ pathways
- NHEJ pathway (53BP1 foci) (53BP1; after gamma-irradiation): inhibiting the HR and NHEJ pathways
- nuclear localization of 53BP1 (53BP1; cytoplasmic staining): interferes with the nuclear localization of 53BP1
- inhibition of cell proliferation with DA Ran overexpression [8]: attenuated when DA Ran was overexpressed
